One test deals with T1, WT PS1-complex (Homo sapiens, UniProt P49768).
T1 construct: made in house; host or cells: mammalian cells (HEK293F is stated for the cryo-EM samples)
In words: in vitro cleavage assay, AICD production by western blot. The class given is biochemical. The following applies: 200 nM MRK-560, WT PS1-complex. As for the experimental part:
(§1) The PS1- or PS2 complexes were expressed and purified as described. To validate the inhibitory effect of MRK-560 (Fig. 1a), we reconstituted an in vitro cleavage assay using the purified PS1- or PS2 complexes. Production of Aβ40, which is the major cleavage product among the varying lengths of Aβs, and AICD, whose cleavage reflects the endopeptidase activity of γ-secretase, are measured with AlphaLISA and western blots, respectively.
(§2) Release of AICD in the presence of decreasing concentrations of MRK-560 from 10 μM to 2 nM was monitored by western blot with the primary monoclonal antibody against the C-terminal Myc tag. The production of AICD was quantified by ImageJ. Red asterisks indicate the first concentration where the normalized production of AICD was reduced to less than 20%. Each cleavage assay in (b–d) was repeated for three times. Error bars: SD. Source Data is available as a Source Data file.
(§3) All proteins used for the activity assay were sub-cloned, expressed and purified as described. Protein concentration was determined using the Bradford method. […] The cleaved products of these substrates were detected using a monoclonal antibody (1:1000 dilution, CW0299, CWBio) against the C-terminal Myc tag. Aβ40 production was detected using the AlphaLISA assay (PerkinElmer) as described. The IC50 values and the inhibition curves were calculated using Prism 8.0.

Another test deals with T2, WT PS2-complex (Homo sapiens, UniProt P49810).
T2 construct: made in house; host or cells: mammalian cells (HEK293F is stated for the cryo-EM samples)
The description is as above. The class given is biochemical. The following applies: 10 μM MRK-560, WT PS2-complex. The procedure:
as §1, §2, §3

The next test addresses T3, PS1 TL281-282PI (Homo sapiens, UniProt P49768, L282I/T281P).
T3 construct: made in house
The test is described as above. The class given is biochemical. The following applies: 10 μM MRK-560, PS1 TL281-282PI. The procedure:
(§4) Fig. 4 Thr281 and Leu282 of PS1 determine the isoform selectivity of MRK-560. a–c Individual and double residue swapping of Thr281 and Leu282 in PS1 with the corresponding Pro287 and Ile288 in PS2 alter their respective sensitives to MRK-560 accordingly. IC50 values for MRK-560 inhibition of the indicated PS1 (a) and PS2 (b) mutants were measured using the AlphaLISA assay that detects Aβ40 production. Please refer to Methods for experimental details. Data are presented as mean values ± SD. c Production of AICD by residue-swapped PS1 and PS2 mutants. The amount of AICD generated by the indicated variants in the presence of serial diluted MRK-560 is consistent with the corresponding IC50 shown in (a, b). […] The production of AICD was quantified by ImageJ. Red asterisks indicate the first concentration where the normalized production of AICD was reduced to less than 20%. Source data are provided as a Source Data file. Each cleavage assay was repeated three times. Error bars: SD.
(§5) We also examined the inhibitory effect of MRK-560 on the production of AICD by the PS1/PS2 variants (Fig. 4c).
(§6) All proteins used for the activity assay were sub-cloned, expressed and purified as described. Protein concentration was determined using the Bradford method. […] The cleavage reaction was conducted at 37 °C for 4 h. The cleaved products of these substrates were detected using a monoclonal antibody (1:1000 dilution, CW0299, CWBio) against the C-terminal Myc tag. Aβ40 production was detected using the AlphaLISA assay (PerkinElmer) as described. The IC50 values and the inhibition curves were calculated using Prism 8.0.

The target in a further test is T4, PS1 variant L282I (Homo sapiens, UniProt P49768, L282I).
T4 construct: made in house
The test is described as above. The class given is biochemical. The following applies: 1 μM MRK-560, PS1 L282I. The procedure: as §4, §5, §6

Another test deals with T5, PS1 variant T281P (Homo sapiens, UniProt P49768, T281P).
T5 construct: made in house
The test is described as above. The following applies: 1 μM MRK-560, PS1 T281P. The class given is biochemical. The procedure: as §4, §5, §6

Another test deals with T6, PS2(PI287-288TL) (Homo sapiens, UniProt P49810, I288L/P287T).
T6 construct: made in house
The description is as above. The class given is biochemical. To be noted: 200 nM MRK-560, PS2(PI287-288TL). The procedure: as §4, §5, §6

Another test deals with PS2 variants. The description is as above. The following applies: PS2 variants versus WT PS2. The class given is biochemical, human. As for the experimental part:
as §4, with “Each cleavage assay was repeated three times. Error bars: SD.” left out
as §3

The subject of test [1] is PS1 and PS2 with swapped loop-3. The test is described as above. The class given is biochemical, human. As for the experimental part: as §4, with “Each cleavage assay was repeated three times. Error bars: SD.” left out
as §3

Test [2] relates to Aβ production in the brain. On the set-up: method as in PMID 17099072, PMID 16443723. To be noted: cited from earlier work.

Entries after “also recorded” stand apart in the source; their conditions may differ.

On to `O=S(=O)(NC1CCC(c2cc(F)ccc2F)(S(=O)(=O)c2ccc(Cl)cc2)CC1)C(F)(F)F` (stereo not drawn) [MRK-560, N-[cis-4-[(4-chlorophenyl)sulfonyl]-4-(2,5-difluorophenyl)cyclohexyl]-1,1,1-trifluoromethanesulfonamide], for which the “Generation of AICD” value is given as “completely inhibited” at WT PS1-complex; “can still be detected; also recorded: could not be completely inhibited” on WT PS2-complex; “could not be completely inhibited” at PS1 TL281-282PI; “still detected” at PS1 variant L282I; “still detected” on PS1 variant T281P; “completely inhibited” at PS2(PI287-288TL). In addition, in the test on PS2 variants, the “sensitivity of AICD production to MRK-560” value is “increased sensitivity”. In test [1], the “effect of swapping loop-3 between PS1 and PS2 on sensitivity to MRK-560” value was “little influence on inhibition selectivity; also recorded: no detectable effect on the sensitivity”. In addition, in test [2], the “Aβ production in the brain” value is “reduced”.

These data come from PMC9587990, “Molecular basis for isoform-selective inhibition of presenilin-1 by MRK-560” (Nature Communications, 2022).
